The subject of data set [1] is JeKo-1. The experiment in a line: Antiproliferative activity in human JeKo-1 cells. Type of data set: functional, cell-based.
The test system of data set [2] is ASPC1. The experiment in a line: Antiproliferative activity in human ASPC1 cells. Type of data set: functional, cell-based.
The subject of data set [3] is 786-0. The experiment in a line: Antiproliferative activity in human 786-0 cells. Type of data set: functional, cell-based.
Data set [4] concerns HEK293. The experiment in a line: Antiproliferative activity in HEK293 cells harbouring ROR1. The note with it: Homo sapiens. Type of data set: toxicity, cell-based.
Data set [5] has as its target T1, Inactive tyrosine-protein kinase transmembrane receptor ROR1 (Homo sapiens, UniProt Q01973). The experiment in a line: Binding affinity to human ROR1 expressed in HEK293 cells by cell based assay.
Data set [6] can be described thus: Stability in mouse serum assessed as half life. Type of data set: ADME, cell-free.
Data set [7] has as its target T1, Inactive tyrosine-protein kinase transmembrane receptor ROR1. The experiment in a line: Binding affinity to human ROR1 harbouring IGt2 domain at 100 nM relative to control.
Data set [8] can be described thus: […] stability in mouse serum assessed as half life. Type of data set: ADME, cell-free.
Data set [9] in a line: Stability in human serum assessed as half life. Type of data set: ADME, cell-free.
Data set [10] has as its target Tyrosine-protein kinase transmembrane receptor ROR2 (Homo sapiens, UniProt Q01974). Put plainly: Binding affinity to full length human His-tagged ROR2 (943 residues ) assessed as dissociation constant by SPR analysis. A general note: SPR reads the build-up and loss of mass on a sensor chip optically.
The target in data set [11] is T1, Inactive tyrosine-protein kinase transmembrane receptor ROR1. Put plainly: Binding affinity to full length human His-tagged ROR1 (937 residues ) assessed as dissociation constant by SPR analysis.
Data set [12] has the same target. The experiment in a line: Binding affinity to human ROR1 harbouring CRD domain at 100 nM relative to control.
Data set [13] shares this target. The experiment in a line: Induction of ROR1 internalization in human 786-0 cells at 4 to 37 degreeC. Type of data set: cell-based.
For data set [14] the target is unchanged. Put plainly: Induction of ROR1 internalization in human MDA-MB-231. Type of data set: cell-based.
Data set [15] shares this target. Put plainly: Induction of ROR1 internalization in human 786-0. Type of data set: cell-based.

Molecules are shown by their SMILES. pEC50, pIC50, pKd: −log10 of the molar value. Active and inactive are the calls of the source. Bridge positions count the residues as written; N and C are the ends. Square brackets hold non-standard residues; d marks the D form. Peptide text beside a SMILES is read from it. * marks the point of attachment. X2 = CCCN(C(=O)[C@@H](NC(=O)[C@H]1CCCCN1C)[C@@H](C)CC)[C@H](C[C@@H](OC(C)=O)c1nc(C(=O)N[C@@H](Cc2ccc(NC(=O)[C@H](CCCNC(N)=O)NC(=O)[C@@H](NC(=O)CCCCCN3C(=O)CC(*)C3=O)C(C)C)cc2)C[C@H](C)C(=O)O)cs1)C(C)C; Bip = N[C@@H](Cc1ccc(-c2ccccc2)cc1)C(=O)O; NMeF = CN[C@@H](Cc1ccccc1)C(=O)O; Sar = CNCC(=O)O

T1 sequence (Q01973 whole entry): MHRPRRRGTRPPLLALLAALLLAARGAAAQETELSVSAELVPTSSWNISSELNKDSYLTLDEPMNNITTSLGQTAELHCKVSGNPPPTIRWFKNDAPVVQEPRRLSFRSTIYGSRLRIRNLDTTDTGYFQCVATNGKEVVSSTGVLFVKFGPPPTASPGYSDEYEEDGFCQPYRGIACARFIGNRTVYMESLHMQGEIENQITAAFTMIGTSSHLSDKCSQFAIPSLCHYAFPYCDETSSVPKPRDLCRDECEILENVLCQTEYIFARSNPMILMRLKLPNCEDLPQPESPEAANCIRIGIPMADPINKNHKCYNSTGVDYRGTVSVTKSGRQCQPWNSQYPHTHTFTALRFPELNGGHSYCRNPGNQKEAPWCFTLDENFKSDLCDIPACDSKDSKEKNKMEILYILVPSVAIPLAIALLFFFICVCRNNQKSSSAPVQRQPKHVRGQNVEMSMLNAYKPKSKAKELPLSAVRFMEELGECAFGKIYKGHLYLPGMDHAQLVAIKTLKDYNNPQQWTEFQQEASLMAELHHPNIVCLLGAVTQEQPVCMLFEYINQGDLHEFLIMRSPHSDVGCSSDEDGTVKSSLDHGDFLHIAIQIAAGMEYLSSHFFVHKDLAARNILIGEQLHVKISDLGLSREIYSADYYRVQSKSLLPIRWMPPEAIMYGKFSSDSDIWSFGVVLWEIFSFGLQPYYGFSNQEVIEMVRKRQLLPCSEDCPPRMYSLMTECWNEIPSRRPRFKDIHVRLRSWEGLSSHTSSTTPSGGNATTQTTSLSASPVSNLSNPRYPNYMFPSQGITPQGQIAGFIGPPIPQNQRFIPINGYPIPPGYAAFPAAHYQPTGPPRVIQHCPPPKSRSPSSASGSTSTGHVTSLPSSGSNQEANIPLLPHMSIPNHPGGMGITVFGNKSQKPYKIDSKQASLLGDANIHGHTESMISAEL
Tyrosine-protein kinase transmembrane receptor ROR2, sequence (Q01974 whole entry): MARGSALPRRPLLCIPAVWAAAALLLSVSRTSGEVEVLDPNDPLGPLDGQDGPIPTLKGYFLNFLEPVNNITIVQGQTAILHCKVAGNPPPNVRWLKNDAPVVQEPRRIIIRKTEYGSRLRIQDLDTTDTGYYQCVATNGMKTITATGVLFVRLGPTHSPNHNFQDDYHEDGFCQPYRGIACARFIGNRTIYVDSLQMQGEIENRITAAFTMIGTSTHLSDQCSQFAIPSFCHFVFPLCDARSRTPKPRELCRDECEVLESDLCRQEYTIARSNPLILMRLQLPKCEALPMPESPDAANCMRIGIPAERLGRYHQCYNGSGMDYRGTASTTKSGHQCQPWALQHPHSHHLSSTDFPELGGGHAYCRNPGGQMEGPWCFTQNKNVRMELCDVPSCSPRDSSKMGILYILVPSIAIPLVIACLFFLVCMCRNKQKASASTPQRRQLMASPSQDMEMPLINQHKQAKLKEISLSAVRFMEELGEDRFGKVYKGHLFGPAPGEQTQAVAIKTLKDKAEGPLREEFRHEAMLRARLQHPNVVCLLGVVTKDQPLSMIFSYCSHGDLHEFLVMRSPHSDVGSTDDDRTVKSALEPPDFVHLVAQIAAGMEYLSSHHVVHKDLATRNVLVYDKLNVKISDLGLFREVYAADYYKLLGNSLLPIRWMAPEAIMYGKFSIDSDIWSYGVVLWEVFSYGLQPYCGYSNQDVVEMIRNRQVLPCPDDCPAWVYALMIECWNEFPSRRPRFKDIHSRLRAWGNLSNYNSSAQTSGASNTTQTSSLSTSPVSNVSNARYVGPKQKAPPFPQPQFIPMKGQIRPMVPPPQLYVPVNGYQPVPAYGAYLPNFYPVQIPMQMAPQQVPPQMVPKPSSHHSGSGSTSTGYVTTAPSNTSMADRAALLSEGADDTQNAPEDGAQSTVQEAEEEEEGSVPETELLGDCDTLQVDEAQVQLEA

The pEC50 is the EC50 on a negative log10 scale, so that one unit is a factor of ten. Turning to `CC(C)C[C@@H]1NC(=O)[C@H](Cc2ccc(O)cc2)NC(=O)[C@H](Cc2ccccc2)NC(=O)CSC[C@@H](C(=O)NCC(=O)NCC(=O)NCC(=O)NCC(=O)O)NC(=O)[C@H](CC(C)C)NC(=O)[C@H](Cc2ccccc2)N(C)C(=O)[C@H](Cc2ccc(O)cc2)NC(=O)[C@H](Cc2c[nH]c3ccccc23)NC(=O)CNC(=O)[C@H](CO)NC(=O)[C@H](Cc2ccc(O)cc2)NC(=O)[C@H](C(C)C)NC1=O` ({CH2CO}-FYLVYSGWY[NMeF]LCGGGG-OH; thioether N-12), the negative logarithm of the EC50 (pEC50) in data set [1] was 7.05; in data set [2], 7.12; in [3] it was 7.20; in [4], 7.26.

For the compound `CCCN(C(=O)[C@@H](NC(=O)[C@H]1CCCCN1C)[C@@H](C)CC)[C@H](C[C@@H](OC(C)=O)c1nc(C(=O)N[C@@H](Cc2ccc(NC(=O)[C@H](CCCNC(N)=O)NC(=O)[C@@H](NC(=O)CCCCCN3C(=O)CC(SC[C@H](NC(=O)CNC(=O)CNC(=O)CNC(=O)CNC(=O)[C@@H]4CSCC(=O)N[C@@H](Cc5ccccc5)C(=O)N[C@@H](Cc5ccc(O)cc5)C(=O)N[C@@H](CC(C)C)C(=O)N[C@@H](C(C)C)C(=O)N[C@@H](Cc5ccc(O)cc5)C(=O)N[C@@H](CO)C(=O)NCC(=O)N[C@@H](Cc5c[nH]c6ccccc56)C(=O)N[C@@H](Cc5ccc(O)cc5)C(=O)N(C)[C@@H](Cc5ccccc5)C(=O)N[C@@H](CC(C)C)C(=O)N4)C(N)=O)C3=O)C(C)C)cc2)C[C@H](C)C(=O)O)cs1)C(C)C` (stereo partly drawn) ({CH2CO}-FYLVYSGWY[NMeF]LCGGGGC(X2)-NH2; thioether N-12), the pEC50 in [1] is 6.48; in data set [2] it was 6.84; in data set [3] it was 6.81; in [4], 7.56.

Broadly, the pIC50 is −log10 of the IC50, conventionally taken in molar units. `CC(C)C[C@@H]1NC(=O)[C@H](Cc2ccc(O)cc2)NC(=O)[C@H](Cc2ccccc2)NC(=O)CSC[C@@H](C(=O)NCC(N)=O)NC(=O)[C@H](CC(C)C)NC(=O)[C@H](Cc2ccccc2)N(C)C(=O)[C@H](Cc2ccc(O)cc2)NC(=O)[C@H](Cc2c[nH]c3ccccc23)NC(=O)CNC(=O)[C@H](Cc2ccc(O)cc2)NC(=O)[C@H](Cc2ccc(O)cc2)NC(=O)[C@H](C(C)C)NC1=O` ({CH2CO}-FYLVYYGWY[NMeF]LCG-NH2; thioether N-12) had a pIC50 in [5] of 8.07.

Regarding `CC(C)C[C@@H]1NC(=O)[C@H](Cc2ccccc2)N(C)C(=O)[C@H](Cc2ccc(O)cc2)NC(=O)[C@H](Cc2c[nH]c3ccccc23)NC(=O)CNC(=O)[C@H](CO)NC(=O)[C@H](Cc2ccc(O)cc2)NC(=O)[C@H](C(C)C)NC(=O)[C@@H]2CCCN2C(=O)[C@H](Cc2ccc(O)cc2)NC(=O)[C@H](Cc2ccccc2)NC(=O)CSC[C@@H](C(=O)NCC(N)=O)NC1=O` ({CH2CO}-FYPVYSGWY[NMeF]LCG-NH2; thioether N-12), in data set [5], the pIC50 is 8.28.

Consider `CC(C)C[C@@H]1NC(=O)[C@H](Cc2ccccc2)N(C)C(=O)[C@H](Cc2ccc(O)cc2)NC(=O)[C@H](Cc2c[nH]c3ccccc23)NC(=O)CNC(=O)[C@H](CO)NC(=O)[C@H](Cc2ccc(O)cc2)NC(=O)[C@H](C(C)C)NC(=O)[C@H](CCCNC(=N)N)NC(=O)[C@H](Cc2ccc(O)cc2)NC(=O)[C@H](Cc2ccccc2)NC(=O)CSC[C@@H](C(=O)NCC(N)=O)NC1=O` ({CH2CO}-FYRVYSGWY[NMeF]LCG-NH2; thioether N-12), for which the pIC50 in data set [5] is 8.20.

For orientation: half-life means the time needed for the level to fall by half in the phase considered. What is called pKd is −log10 of the Kd, conventionally taken in molar units. For the compound `CN1CC(=O)N[C@@H](CO)C(=O)N[C@@H](Cc2ccc(-c3ccccc3)cc2)C(=O)NCC(=O)N[C@@H](CCCNC(=N)N)C(=O)N[C@@H](CCCNC(=N)N)C(=O)N[C@@H](CCCNC(=N)N)C(=O)NCC(=O)N[C@H](C(=O)NCC(N)=O)CSCC(=O)N[C@@H](Cc2ccccc2)C(=O)N[C@@H](Cc2ccc(O)cc2)C1=O` ({CH2CO}-FY[Sar]S[Bip]GRRRGCG-NH2; thioether N-11), the half-life in data set [6] was 0.517 h; in data set [8], 24 h; in data set [9] it was 1.1 h. In addition, the Activity in [7] was determined as 125%; in [12] it was 114%. Also, the pKd in [10] was below 7.00; in [11], 8.52. Also, the result in [13] was inactive.

As to `CC(C)C[C@@H]1NC(=O)[C@H](Cc2ccc(O)cc2)NC(=O)[C@H](Cc2c[nH]c3ccccc23)NC(=O)CSC[C@@H](C(=O)NCC(N)=O)NC(=O)[C@H](CC(C)C)NC(=O)[C@H](Cc2ccccc2)N(C)C(=O)[C@H](Cc2ccc(O)cc2)NC(=O)[C@H](Cc2c[nH]c3ccccc23)NC(=O)CNC(=O)[C@H](CO)NC(=O)[C@H](Cc2ccc(O)cc2)NC(=O)[C@H](C(C)C)NC1=O` ({CH2CO}-WYLVYSGWY[NMeF]LCG-NH2; thioether N-12), the result in data set [14] and in [15] was Active. In addition, in [5], the pIC50 is 8.66.

For the compound `CC[C@H](C)[C@H](NC(=O)[C@H]1CCCCN1C)C(=O)N(COC(=O)CC(C)C)[C@H](C[C@@H](OC(C)=O)c1nc(C(=O)N[C@@H](Cc2ccc(C)cc2)C[C@H](C)C(=O)O)cs1)C(C)C` [TUBULYSIN], the pEC50 in data set [3] was 9.24.

These data come from ChEMBL document CHEMBL5356977, “Exploration of macrocyclic peptide binders to the extracellular CRD domain of human receptor tyrosine kinase-like orphan receptor 1 (ROR1)” (Bioorg Med Chem Lett, 2024).
